# From US8247211B2, “Glycopeptide antibiotics” (American Cyanamid Company, priority 2001, dated 2012)
# Assays:
# Experiment in all cases: In vitro antibacterial evaluation: minimum inhibitory concentration (MIC), broth dilution method
# Format in all cases: cell-based
# Enterococcus sp. = test system: Enterococcus sp.
# In short: (§1)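 Using Muller-Hinton II […] and an inoculum of 5×10^5 CFU/mL, antibiotic dilutions from 64 down to 0.06 μg/mL were tested following NCCLS M7-A2. The MIC is the lowest concentration inhibiting growth, including in methicillin-, penicillin- or vancomycin-resistant clinical isolates.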
# Escherichia coli = test system: Escherichia coli
# In short: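 First, organisms are seeded at 5×10^5 CFU/mL into Muller-Hinton II […]. Next, antibiotic is applied across 64-0.06 μg/mL by broth dilution (NCCLS M7-A2). Finally, the lowest inhibitory concentration is recorded as MIC.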
# Staphylococcus sp. = settings: for MIC Staphylococcus aureus (ATCC 29213) / MIC Staphylococcus aureus (GC 1131) / MIC Staphylococcus aureus (GC 3051) / MIC Staphylococcus aureus (GC 3053) / MIC Staphylococcus aureus (GC 4541) / MIC Staphylococcus aureus (GC 4542) / MIC Staphylococcus aureus (GC 4544) / MIC Staphylococcus aureus (GC 4545): broth dilution, 18 hours at 35° C.
# In short: as §1
# Streptococcus sp. = test system: Streptococcus sp.
# In short: as §1
# [1] = broth dilution, inoculum 5×10^5 CFU/mL, 18 hours at 35° C.
smiles,measurement,setting,value
"CC(c1ccccc1)C1NC(=O)CNC(=O)C(CO)NC(=O)C(C(O)C2CNC(=N)N2C2OC(CO)C(O)C(O)C2O)NC(=O)C(C(O)C2CNC(=N)N2)NC(=O)C(Cc2ccc(OC3OC(CO)C(OC4OC5COC(c6cccc(OCc7ccc([N+](=O)[O-])cc7)c6)OC5C(O)C4O)C(O)C3O)cc2)NC1=O (stereo not drawn) [Example 182, Cyclo[glycyl-β-methylphenylalanyl-O-[4-O-[4,6-O-(3-[[(4-nitrophenyl)methoxy]benzylidene]hexopyranosyl]hexopyranosyl]tyrosyl-3-(2-iminoimidazolidin-4-yl)seryl-3-β-hexopyranosyl-2-iminoimidazolidin-4-yl)serylseryl]]",MIC Enterococcus avium (GC 4558),Enterococcus sp.; [1],>64 µg/mL
same,MIC Enterococcus faecalis (ATCC 29212),Enterococcus sp.; [1],>64 µg/mL
same,MIC Enterococcus faecalis (GC 2242),Enterococcus sp.; [1],>64 µg/mL
same,MIC Enterococcus faecalis (GC 2691),Enterococcus sp.; [1],>64 µg/mL
same,MIC Enterococcus faecalis (GC 3059),Enterococcus sp.; [1],>64 µg/mL
same,MIC Enterococcus faecalis (GC 4552),Enterococcus sp.; [1],>64 µg/mL
same,MIC Enterococcus faecalis (GC 4553),Enterococcus sp.; [1],>64 µg/mL
same,MIC Enterococcus faecalis (GC 4554),Enterococcus sp.; [1],>64 µg/mL
same,MIC Enterococcus faecalis (GC 6189),Enterococcus sp.; [1],>64 µg/mL
same,MIC Enterococcus faecium (GC 2243),Enterococcus sp.; [1],>64 µg/mL
same,MIC Enterococcus faecium (GC 4556),Enterococcus sp.; [1],>64 µg/mL
same,MIC Enterococcus faecium (GC 4557),Enterococcus sp.; [1],>64 µg/mL
same,MIC Enterococcus faecalis (ATCC 29212),Enterococcus sp.; strain ATCC 29212,>64 µg/mL
same,MIC Enterococcus faecalis (GC 2242),Enterococcus sp.; strain GC 2242,>64 µg/mL
same,MIC Enterococcus faecium (GC 2243),Enterococcus sp.; strain GC 2243,>64 µg/mL
same,MIC Enterococcus faecalis (GC 2691),Enterococcus sp.; strain GC 2691,>64 µg/mL
same,MIC Enterococcus faecalis (GC 3059),Enterococcus sp.; strain GC 3059,>64 µg/mL
same,MIC Enterococcus faecalis (GC 4552),Enterococcus sp.; strain GC 4552,>64 µg/mL
same,MIC Enterococcus faecalis (GC 4553),Enterococcus sp.; strain GC 4553,>64 µg/mL
same,MIC Enterococcus faecalis (GC 4554),Enterococcus sp.; strain GC 4554,>64 µg/mL
same,MIC Enterococcus faecium (GC 4556),Enterococcus sp.; strain GC 4556,>64 µg/mL
same,MIC Enterococcus faecium (GC 4557),Enterococcus sp.; strain GC 4557,>64 µg/mL
same,MIC Enterococcus avium (GC 4558),Enterococcus sp.; strain GC 4558,>64 µg/mL
same,MIC Enterococcus faecalis (GC 6189),Enterococcus sp.; strain GC 6189,>64 µg/mL
same,MIC Escherichia coli (ATCC 25922),Escherichia coli; strain ATCC 25922,>64 µg/mL
same,MIC Escherichia coli (GC 4559),Escherichia coli; strain GC 4559,>64 µg/mL
same,MIC Escherichi coli (GC 4560),Escherichia coli; strain GC 4560,>64 µg/mL
same,MIC Staphylococcus aureus (ATCC 29213),Staphylococcus sp.; 5×10^5 CFU/mL,>64 µg/mL
same,MIC Staphylococcus aureus (GC 1131),Staphylococcus sp.; 5×10^5 CFU/mL,>64 µg/mL
same,MIC Staphylococcus aureus (GC 3051),Staphylococcus sp.; 5×10^5 CFU/mL,>64 µg/mL
same,MIC Staphylococcus aureus (GC 3053),Staphylococcus sp.; 5×10^5 CFU/mL,>64 µg/mL
same,MIC Staphylococcus aureus (GC 4541),Staphylococcus sp.; 5×10^5 CFU/mL,>64 µg/mL
same,MIC Staphylococcus aureus (GC 4542),Staphylococcus sp.; 5×10^5 CFU/mL,>64 µg/mL
same,MIC Staphylococcus aureus (GC 4544),Staphylococcus sp.; 5×10^5 CFU/mL,>64 µg/mL
same,MIC Staphylococcus aureus (GC 4545),Staphylococcus sp.; 5×10^5 CFU/mL,>64 µg/mL
same,MIC Staphylococcus aureus (ATCC 29213),Staphylococcus sp.; strain ATCC 29213,>64 µg/mL
same,MIC Staphylococcus aureus (GC 1131),Staphylococcus sp.; strain GC 1131,>64 µg/mL
same,MIC Staphylococcus aureus (GC 3051),Staphylococcus sp.; strain GC 3051,>64 µg/mL
same,MIC Staphylococcus aureus (GC 3053),Staphylococcus sp.; strain GC 3053,>64 µg/mL
same,MIC Staphylococcus aureus (GC 4541),Staphylococcus sp.; strain GC 4541,>64 µg/mL
same,MIC Staphylococcus aureus (GC 4542),Staphylococcus sp.; strain GC 4542,>64 µg/mL
same,MIC Staphylococcus aureus-SMITH (GC 4543),Staphylococcus sp.; strain GC 4543,>64 µg/mL
same,MIC Staphylococcus aureus (GC 4544),Staphylococcus sp.; strain GC 4544,>64 µg/mL
same,MIC Staphylococcus aureus (GC 4545),Staphylococcus sp.; strain GC 4545,>64 µg/mL
same,MIC Staphylococcus haemolyticus (GC 4546),Staphylococcus sp.; strain GC 4546,>64 µg/mL
same,MIC Coagulase Negative Staphylococcus (GC 4547),Staphylococcus sp.; strain GC 4547,>64 µg/mL
same,MIC Coagulase Negative Staphylococcus (GC 4548),Staphylococcus sp.; strain GC 4548,>64 µg/mL
same,MIC Coagulase Negative Staphylococcus (GC 4549),Staphylococcus sp.; strain GC 4549,>64 µg/mL
same,MIC Coagulase Negative Staphylococcus (GC 4551),Staphylococcus sp.; strain GC 4551,>64 µg/mL
same,MIC Coagulase Negative Staphylococcus (GC 6257),Staphylococcus sp.; strain GC 6257,>64 µg/mL
same,MIC Streptococcus agalactiae (GC 4564),Streptococcus sp.; [1],32 µg/mL
same,MIC Streptococcus pneumoniae (ATCC 6301),Streptococcus sp.; [1],4 µg/mL
same,MIC Streptococcus pneumoniae (GC 1894),Streptococcus sp.; [1],8 µg/mL
same,MIC Streptococcus pneumoniae (GC 4565),Streptococcus sp.; [1],8 µg/mL
same,MIC Streptococcus pyogenes (GC 4563),Streptococcus sp.; [1],64 µg/mL
same,MIC Streptococcus pneumoniae (ATCC 6301),Streptococcus sp.; strain ATCC 6301,4 µg/mL
same,MIC Streptococcus pneumoniae (GC 1894),Streptococcus sp.; strain GC 1894,8 µg/mL
same,MIC Streptococcus pyogenes (GC 4563),Streptococcus sp.; strain GC 4563,64 µg/mL
same,MIC Streptococcus agalactiae (GC 4564),Streptococcus sp.; strain GC 4564,32 µg/mL
same,MIC Streptococcus pneumoniae (GC 4565),Streptococcus sp.; strain GC 4565,8 µg/mL
